Assay results published in PubChem BioAssay (NCI).
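Compound exposure: 48 hours, 5 concentrations, 96-well plates. TGI: total growth inhibition.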

Assays:
Assay in all cases: DTP human tumour cell line panel, 48 h
HS 578T breast = tested on: HS 578T breast
HOP-62 NSCLC = tested on: HOP-62 NSCLC
MDA-MB-435 = tested on: MDA-MB-435
KM12 colon = tested on: KM12 colon
T-47D breast = tested on: T-47D breast
EKVX NSCLC = tested on: EKVX NSCLC
HCC-2998 colon = tested on: HCC-2998 colon
HCT-15 colon = tested on: HCT-15 colon
ACHN renal = tested on: ACHN renal
TK-10 renal = tested on: TK-10 renal
MALME-3M melanoma = tested on: MALME-3M melanoma
HL-60(TB) leukemia = tested on: HL-60(TB) leukemia
MDA-MB-231 breast = tested on: MDA-MB-231 breast
K-562 leukemia = tested on: K-562 leukemia
OVCAR-3 ovarian = tested on: OVCAR-3 ovarian
NCI/ADR-RES ovarian = tested on: NCI/ADR-RES ovarian
SNB-19 CNS = tested on: SNB-19 CNS
BT-549 breast = tested on: BT-549 breast
RPMI-8226 leukemia = tested on: RPMI-8226 leukemia
OVCAR-4 ovarian = tested on: OVCAR-4 ovarian

Row | Compound | TGI (HS 578T breast) | TGI (HOP-62 NSCLC) | TGI (MDA-MB-435) | TGI (KM12 colon) | TGI (T-47D breast) | TGI (EKVX NSCLC) | TGI (HCC-2998 colon) | TGI (HCT-15 colon) | TGI (ACHN renal) | TGI (TK-10 renal) | TGI (MALME-3M melanoma) | TGI (HL-60(TB) leukemia) | TGI (MDA-MB-231 breast) | TGI (K-562 leukemia) | TGI (OVCAR-3 ovarian) | TGI (NCI/ADR-RES ovarian) | TGI (SNB-19 CNS) | TGI (BT-549 breast) | TGI (RPMI-8226 leukemia) | TGI (OVCAR-4 ovarian)
1 | CC(C)(C)c1cc(OCc2nnc3sc(=S)[nH]n23)c(Cl)cc1OCc1nnc2sc(=S)[nH]n12 | > 100 µM | > 100 µM | 55.1 µM | 68.7 µM | 57.7 µM | 85.4 µM | 65.2 µM | > 100 µM | 76.8 µM | 99.8 µM | 46.9 µM | 55.5 µM | > 100 µM | > 100 µM | 63.6 µM | > 100 µM | > 100 µM | > 100 µM | > 100 µM | 80.6 µM
2 | O=C1N[C@@H]2c3c(Br)sc(Br)c3C(=O)[C@@H]2O1 | 78.7 µM | 42.7 µM | 6.33 µM | 26 µM | 27 µM | 4.44 µM | 10.8 µM | 4.05 µM | 3.48 µM | 10.5 µM | 7.63 µM | 1.96 µM | 5.83 µM | 2.56 µM | 3.38 µM | 18 µM | 30.3 µM | 24.1 µM | 25.4 µM | 3.43 µM
3 | O=C(CCCl)NNC1=NCCCCN1 | > 100 µM | > 100 µM | > 100 µM | > 100 µM | > 100 µM | > 100 µM | > 100 µM | > 100 µM | > 100 µM | > 100 µM | > 100 µM | > 100 µM | > 100 µM | > 100 µM | > 100 µM | > 100 µM | > 100 µM | > 100 µM | > 100 µM | > 100 µM
4 | O=C1c2ccccc2CC12Cc1ccccc1C2 | > 100 µM | > 100 µM | > 100 µM | > 100 µM | > 100 µM | 78.3 µM | 70.3 µM | > 100 µM | > 100 µM | 97.4 µM | > 100 µM | 48.4 µM | > 100 µM | > 100 µM | > 100 µM | 89.1 µM | > 100 µM | > 100 µM | > 100 µM | > 100 µM
5 | CCCCCCOc1ccc(C(=O)N(C)O)cc1 | > 100 µM | > 83.5 µM | 98.1 µM | > 100 µM | 99.4 µM | > 100 µM | 99 µM | > 82.9 µM | 30.3 µM | > 100 µM | 57.3 µM | 33.2 µM | > 100 µM | > 78.8 µM | > 100 µM | 57.1 µM | > 100 µM | > 100 µM | 46.6 µM | > 100 µM
6 | CN1C=Cc2nccc3cc4c(c1c23)OCO4 | > 77.3 µM | 32.7 µM | 12.1 µM | 17.6 µM | > 27.1 µM | 13.8 µM | 30.4 µM | > 66.3 µM | 19.3 µM | 35.4 µM | 0.836 µM | > 100 µM | 29 µM | > 100 µM | > 72.4 µM | 52.6 µM | 41 µM | 7.36 µM | 30.7 µM | 47.5 µM
7 | C=C(C)C(O)C(O)C[C@@H](C)C1CC[C@]23C[C@]12CCC1[C@@]2(C)CCC(OC(C)=O)C(C)(C)C2CC(OC2OC(CO)C(O)C(O)C2O)[C@]13C (stereo not given in full) | 39.6 µM | 31.9 µM | 31.7 µM | 31.8 µM | 31.6 µM | > 100 µM | 29.1 µM | > 100 µM | > 100 µM | 56.2 µM | 32.3 µM | 36.7 µM | 28.2 µM | 46.6 µM | 32.3 µM | > 100 µM | 45.1 µM | 27.6 µM | 46.5 µM | 41.8 µM
8 | Cc1nc2ccc(NC3OC(CO)C(O)C(O)C3O)cc2c(=O)n1-c1ccccc1 (stereo not given) | > 100 µM | > 100 µM | > 100 µM | > 100 µM | > 100 µM | > 100 µM | > 100 µM | > 100 µM | > 100 µM | > 100 µM | > 100 µM | > 100 µM | > 100 µM | > 100 µM | > 100 µM | > 100 µM | > 100 µM | > 100 µM | > 100 µM | > 100 µM
9 | O=c1oc2ccc(Cl)cc2cc1-c1cn2ccccc2n1 | > 100 µM | 16.1 µM | > 100 µM | > 100 µM | > 100 µM | > 100 µM | > 100 µM | > 100 µM | 8.54 µM | 35.3 µM | 23.5 µM | > 100 µM | > 52.7 µM | > 100 µM | > 100 µM | > 77.4 µM | > 21 µM | > 100 µM | > 100 µM | 29.8 µM
10 | C=CC(Br)(CBr)CCC(Br)C(C)(C)Cl (stereo not given) | 14.7 µM | 7.87 µM | 5.82 µM | 3.92 µM | 3.95 µM | 26.8 µM | 12.8 µM | 6.53 µM | 6.07 µM | 6.33 µM | 19.2 µM | 2.6 µM | 6.95 µM | 5.1 µM | 5.25 µM | 18.6 µM | 4.51 µM | 21.8 µM | 2.31 µM | 10.4 µM
11 | N#Cc1c(Cl)nc2ccccc2c1N=[N+]=[N-] | 17.3 µM | 32.7 µM | 17.7 µM | 17.8 µM | 5.83 µM | 5.53 µM | 14.4 µM | 4.3 µM | 4.11 µM | 9.82 µM | 3.75 µM | 3.3 µM | 3.62 µM | 2.45 µM | 3.76 µM | 37.3 µM | 29.7 µM | 4.16 µM | 7.89 µM | 4.24 µM
